According to ChEMBL document CHEMBL1201862, “PubChem BioAssay data set” (2004):
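Protocol summary: plate cells (96-well), add compound at 5 concentrations, incubate 48 h, interpolate endpoints linearly. At the GI50, growth is halved.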 Calls of active or inactive are those of the source. Cut-off read from the data, not from the text of the source: active = GI50 up to about 1.1 µM and inactive = higher.

How the values were obtained:
Assay in all cases: NCI tumour cell line growth inhibition, 48 h
IGROV-1 = system: IGROV-1
OVCAR-5 = system: OVCAR-5
CCRF-CEM = system: CCRF-CEM
SN12C = system: SN12C
Hs-578T = system: Hs-578T
HCT-116 = system: HCT-116
MOLT-4 = system: MOLT-4
SK-OV-3 = system: SK-OV-3
T47D = system: T47D
OVCAR-3 = system: OVCAR-3
SK-MEL-2 = system: SK-MEL-2
SF-268 = system: SF-268
SR = system: SR
K562 = system: K562
SK-MEL-28 = system: SK-MEL-28
NCI-H522 = system: NCI-H522
M14 = system: M14
MCF7 = system: MCF7
HCC 2998 = system: HCC 2998
EKVX = system: EKVX
HOP-62 = system: HOP-62
NCI/ADR-RES = system: NCI/ADR-RES
OVCAR-8 = system: OVCAR-8
HOP-92 = system: HOP-92
PC-3 = system: PC-3
TK-10 = system: TK-10
RPMI-8226 = system: RPMI-8226
KM12 = system: KM12
A549 = system: A549
HL-60 = system: HL-60
SF-295 = system: SF-295
NCI-H23 = system: NCI-H23
UO-31 = system: UO-31
DU-145 = system: DU-145
ACHN = system: ACHN
SK-MEL-5 = system: SK-MEL-5
SNB-19 = system: SNB-19
UACC-257 = system: UACC-257
HCT-15 = system: HCT-15
BT-549 = system: BT-549
SW-620 = system: SW-620
MDA-N = system: MDA-N
CAKI-1 = system: CAKI-1
786-0 = system: 786-0
UACC-62 = system: UACC-62
RXF 393 = system: RXF 393
MDA-MB-231 = system: MDA-MB-231
LOX IMVI = system: LOX IMVI
SNB-75 = system: SNB-75
MDA-MB-435 = system: MDA-MB-435
OVCAR-4 = system: OVCAR-4
HT-29 = system: HT-29
COLO 205 = system: COLO 205
NCI-H226 = system: NCI-H226
Malme-3M = system: Malme-3M
NCI-H460 = system: NCI-H460
A498 = system: A498
U-251 = system: U-251

Measured: GI50

CCOC(=O)N1c2ccccc2N(C(=O)OCC)C1CC(=O)/C=C/c1ccccc1
inactive: IGROV-1 3.63 µM | OVCAR-5 2.65 µM | CCRF-CEM 1.86 µM | SN12C 3.66 µM | Hs-578T 1.87 µM | HCT-116 3.3 µM | MOLT-4 2.4 µM | SK-OV-3 5.35 µM | T47D 5.16 µM | OVCAR-3 3.13 µM | SK-MEL-2 1.94 µM | SF-268 2.37 µM | SR 2.3 µM | K562 3.72 µM | SK-MEL-28 7.57 µM | NCI-H522 1.78 µM | M14 4.45 µM | MCF7 3.1 µM | HCC 2998 3 µM | EKVX 2.79 µM | HOP-62 3.99 µM | NCI/ADR-RES 2.73 µM | OVCAR-8 2.65 µM | HOP-92 1.97 µM | PC-3 3.94 µM | TK-10 3.74 µM | RPMI-8226 3.19 µM | KM12 3.05 µM | A549 3.36 µM | HL-60 2.61 µM | SF-295 4.05 µM | NCI-H23 2.88 µM | UO-31 3.82 µM | DU-145 2.69 µM | ACHN 4.15 µM | SK-MEL-5 2.47 µM | SNB-19 3.28 µM | UACC-257 6.49 µM | BT-549 2.89 µM | SW-620 2.06 µM | MDA-N 3.57 µM | CAKI-1 1.44 µM | 786-0 3.3 µM | UACC-62 2.7 µM | RXF 393 3.85 µM | MDA-MB-231 4.03 µM | LOX IMVI 2.45 µM | SNB-75 3.34 µM | MDA-MB-435 2.74 µM | OVCAR-4 2.23 µM | HT-29 2.94 µM | COLO 205 2.04 µM | NCI-H226 2.81 µM | Malme-3M 4.06 µM | NCI-H460 3.03 µM | A498 3.37 µM | U-251 3.46 µM
2.98 µM: HCT-15
